How the values were obtained:
[1] = tested on: BT-20; assay: MTS growth assay, 3 days treatment; type: cell-based, human; conditions: BT-20, TN (Unclass.), 100 nM
Method: (§1) Breast cancer is a very heterogeneous disease consisting of multiple molecular subtypes. In order to examine the antitumorigenic properties of AMPI-109 in human breast cancer cells of various subtypes, a cohort of breast cancer cell lines were treated with AMPI-109 at its IC50 (the dose where 50% of the cells show the desired effects), equimolar 1,25D or ethanol control and cellular growth was quantified. In particular, the cell lines were treated at the approximate IC50 (100 nM) of AMPI-109, 1,25D (100 nM) or ethanol control for 3 days. MTS assays were then performed. The experiment was repeated three times with 6 replicates per experiment.
(§2) The percentage in Table 1 represents growth compared to control treatment. The p values represent significance of difference between 1,25D inhibition and AMPI-109 inhibition of growth. It can be concluded from the data that AMPI-109 inhibits the growth of multiple TN breast cancer subtypes and this inhibition appeared to be almost entirely specific for TN breast cancer cell lines.

[2] = tested on: BT-474; assay: MTS growth assay, 3 days treatment; type: cell-based, human; conditions: BT-474, Luminal B, 100 nM
Method: as §1, §2

[3] = tested on: BT-549; assay: MTS growth assay, 3 days treatment; type: cell-based, human; conditions: BT-549, TN (M), 100 nM
Method: as §1, §2

[4] = tested on: HCC70; assay: MTS growth assay, 3 days treatment; type: cell-based, human; conditions: HCC70, TN (BL2), 100 nM
Method: as §1, §2

[5] = tested on: MCF10A; assay: MTS growth assay, 3 days treatment; type: cell-based, human; conditions: Nonmalignant, 100 nM
Method: as §1, §2

[6] = tested on: MCF7; assay: MTS growth assay, 3 days treatment; type: cell-based, human; conditions: MCF7, Luminal A, 100 nM
Method: as §1, §2

[7] = tested on: MDA-231; assay: MTS growth assay, 3 days treatment; type: cell-based, human; conditions: MDA-231, TN (MSL), 100 nM
Method: as §1, §2

[8] = tested on: MDA-453; assay: MTS growth assay, 3 days treatment; type: cell-based, human; conditions: MDA-453, HER2, 100 nM
Method: as §1, §2

[9] = tested on: MDA-468; assay: MTS growth assay, 3 days treatment; type: cell-based, human; conditions: MDA-468, TN (BL1), 100 nM
Method: as §1, §2

[10] = tested on: SKBR3; assay: MTS growth assay, 3 days treatment; type: cell-based, human; conditions: SKBR3, HER2, 100 nM
Method: as §1, §2

[11] = tested on: SUM149; assay: MTS growth assay, 3 days treatment; type: cell-based, human; conditions: SUM149, TN (BL2), 100 nM
Method: as §1, §2

[12] = tested on: T47D; assay: MTS growth assay, 3 days treatment; type: cell-based, human; conditions: Luminal A, 100 nM
Method: as §1, §2

[13] = tested on: human breast cancer cells; assay: IC50 of AMPI-109 for cellular growth (MTS); type: cell-based; conditions: breast cancer cell lines, read-out: approximate IC50
Method: as §1

[14] = tested on: patient-derived triple negative breast cancer tumor xenograft; assay: Patient-derived TNBC tumor xenograft growth inhibition; type: in vivo, NOD-SCID mice; conditions: 1 ug/kg i.p. every other day for three weeks, vs vehicle
Description: The inventors further examined the ability of AMPI-109 to inhibit the growth of a patient-derived triple negative breast cancer tumor xenograft. A tumor from a person diagnosed with stage 4 triple negative breast cancer was propagated by serial passage through NOD-SCID mice. The tumor was dissected into equal sizes and implanted into the left and right mammary fat pads of 12 NOD-SCID mice. Once the tumors reached 100 mm^3 in size the mice were randomized into vehicle- and AMPI-109-treated arms. A total of 19 tumors grew out (9 for vehicle, and 10 for AMPI-109 treated). Vehicle control or AMPI-109 (1 ug/kg body weight) was administered by i.p. injection every other day for three weeks. Upon completion of the study, the tumors were excised and volume and mass were determined. […] The results were shown in FIG. 1, where * indicates a p value of 0.018, which was determined by T-test.

[15] = tested on: BT-20; assay: Cell viability by crystal violet staining, 7 days; type: cell-based, human; conditions: 100 nM
Method: (§3) In order to determine the effects of AMPI-109 on cell viability as one possible explanation of the reduction in tumor size, the inventors plated various breast cancer cell lines in 6-well dishes and treated with either ethanol control (CU), vitamin D (1,25D) or AMPI-109. 1,25D and AMPI-109 were administered at 100 nM. The plates were incubated for 7 days and cell viability was assessed by crystal violet staining.

[16] = tested on: MCF-10A; assay: Cell viability by crystal violet staining, 7 days; type: cell-based, human; conditions: MCF-10A non-malignant, 100 nM
Method: as §3

[17] = tested on: MCF7; assay: Cell viability by crystal violet staining, 7 days; type: cell-based, human; conditions: MCF7 luminal A, 100 nM
Method: as §3

[18] = tested on: MDA-231; assay: Cell viability by crystal violet staining, 7 days; type: cell-based, human; conditions: 100 nM
Method: as §3

[19] = tested on: BT-20; assay: Apoptosis ELISA assay, 24 hours; type: cell-based, human; conditions: 100 nM
Method: (§4) The inventors also examined the ability of AMPI-109 to induce apoptosis in TN breast cancer cells by performing ELISA assays. Various cell lines (MCF10A, MCF-7, BT-20 and MDA-231) were treated with ethanol control (C), paclitaxel (100 nM, (T)), 1,25D (100 nM), (D)), or AMPI-109 (100 nM), (A)) for 24 hours. ELISA assays were then performed. The p values in the figure were determined by T-test. […] Therefore, it can be concluded that AMPI-109 appears to specifically induce apoptosis in TN breast cancer cells.

[20] = tested on: MDA-231; assay: Apoptosis ELISA assay, 24 hours; type: cell-based, human; conditions: 100 nM
Method: as §4

[21] = tested on: BT-20; assay: PARP cleavage by western blot, 24 hours; type: cell-based, human; conditions: 100 nM
Method: (§5) Cleavage of poly (ADP)-ribose polymerase (PARP), a hallmark of apoptosis, was used to further investigate the ability of AMPI-109 to induce apoptosis of TN breast cancer cells. FIG. 2C, wherein PARP cleavage was determined by western blot, summarizes the results of cleaved PARP after treating MCF10A, MCF-7, BT-20 and MDA-231 with ethanol control (C), paclitaxel (100 nM, (T)), 1,25D (100 nM), (D)), or AMPI-109 (100 nM), (A)) for 24 hours. […] Accordingly, the results as described in FIG. 2A, FIG. 2B, and FIG. 2C indicate the capability of AMPI-109 as an agent to induce apoptosis of TN breast cancer cells.

[22] = tested on: MCF-7; assay: PARP cleavage by western blot, 24 hours; type: cell-based, human; conditions: 100 nM
Method: as §5

[23] = tested on: MCF10A; assay: PARP cleavage by western blot, 24 hours; type: cell-based, human; conditions: 100 nM
Method: as §5

[24] = tested on: MDA-231; assay: PARP cleavage by western blot, 24 hours; type: cell-based, human; conditions: 100 nM
Method: as §5

[25] = tested on: BT-20 cells; assay: Growth assay in BT-20 cells with VDR shRNA knock down, 72 hours; type: cell-based, human; conditions: p<0.001
Description: The inventors used shRNAs directed against VDR in BT-20 cells and examined the response after treatment with AMPI-109. […] The non-silencing control is designated as pLKO.

[26] = tested on: BT-20 cells; assay: Block of AMPI-109-mediated growth inhibition by RXR antagonist; type: cell-based, human; conditions: doses which blocked VDR-mediated gene expression
Description: VDR activates gene expression as a heterodimer with the retinoid X receptor (RXR). The inventors thus also tested whether pharmacologic inhibition of the VDR axis with HX531, an RXR antagonist, would block AMPI-109-mediated growth inhibition of BT-20 cells.

[27] = tested on: VDR-mediated gene expression; assay: VDR-mediated gene expression; type: cell-based
[28] = tested on: MCF-10A; assay: Apoptosis ELISA assay, 24 hours; type: cell-based, human; conditions: 100 nM
Method: as §4

[29] = tested on: MCF-7; assay: Apoptosis ELISA assay, 24 hours; type: cell-based, human; conditions: 100 nM
Method: as §4

Structure (SMILES) | % Control (growth compared to control treatment) [1] [%] | % Control (growth compared to control treatment) [2] [%] | % Control (growth compared to control treatment) [3] [%] | % Control (growth compared to control treatment) [4] [%] | % Control (growth compared to control treatment) [5] [%] | % Control (growth compared to control treatment) [6] [%] | % Control (growth compared to control treatment) [7] [%] | % Control (growth compared to control treatment) [8] [%] | % Control (growth compared to control treatment) [9] [%] | % Control (growth compared to control treatment) [10] [%] | % Control (growth compared to control treatment) [11] [%] | % Control (growth compared to control treatment) [12] [%] | induction of apoptosis (ELISA) [19] | induction of apoptosis (ELISA) [20] | further results
C=C1/C(=C\C=C2/CCC[C@]3(C)[C@@H]([C@H](C)CCCC(C)(C)O)CC[C@@H]23)C[C@@H](O)C[C@@H]1O [1,25D, reference compound] | 82 | 87 | 94 | 83 | 102 | 95 | 96 | 94 | 86 | 100 | 92 | 98 | – | – | –
C=C1/C(=C\C=C2/CCC[C@]3(C)[C@@H]([C@H](C)CCCC(C)(C)O)CC[C@@H]23)C[C@@H](OC(=O)CBr)C[C@@H]1O [AMPI-109, 1α,25-Dihydroxyvitamin D3-3β-bromoacetate] | 29 | 66 | 69 | 49 | 99 | 93 | 44 | 86 | 39 | 99 | 39 | 94 | strong induction of apoptosis | strong induction of apoptosis | IC50 [13]: ~0.1 µM; tumor mass [14]: significant reduction; tumor volume [14]: significant reduction; reduction of the size of the tumors ([14]; p 0.018): approximately 30%; cell viability (crystal violet staining) [15]: significant reduction in cell viability; cell viability (crystal violet staining) [16]: no effect on cell viability; cell viability (crystal violet staining) [17]: no effect on cell viability; cell viability (crystal violet staining) [18]: significant reduction in cell viability; PARP cleavage (western blot) [21]: promoted PARP cleavage; PARP cleavage (western blot) [22]: only in BT-20 and MDA-231 cells; PARP cleavage (western blot) [23]: only in BT-20 and MDA-231 cells; PARP cleavage (western blot) [24]: promoted PARP cleavage; growth inhibition ([25]; BT-20 cells with VDR knocked down (VDR3, VDR8 shRNAs)): equally effective at inhibiting the growth; growth inhibition ([25]; BT-20 control cells (pLKO non-silencing)): equally effective at inhibiting the growth
CN1c2ccc([N+](=O)[O-])cc2N=C(c2ccc(C(=O)O)cc2)c2cc3c(cc21)C(C)(C)CCC3(C)C [HX531] | – | – | – | – | – | – | – | – | – | – | – | – | – | – | effect on AMPI-109-mediated growth inhibition [26]: did not inhibit the antiproliferative effects of AMPI-109; effect on VDR-mediated gene expression [27]: blocked VDR-mediated gene expression
CC(=O)O[C@H]1C(=O)[C@@]2(C)[C@H]([C@H](OC(=O)c3ccccc3)[C@]3(O)C[C@H](OC(=O)[C@H](O)[C@@H](NC(=O)c4ccccc4)c4ccccc4)C(C)=C1C3(C)C)[C@]1(OC(C)=O)CO[C@@H]1C[C@@H]2O [paclitaxel, reference compound] | – | – | – | – | – | – | – | – | – | – | – | – | induced apoptosis in all cells tested | induced apoptosis in all cells tested | induction of apoptosis (ELISA) [28]: induced apoptosis in all cells tested; induction of apoptosis (ELISA) [29]: induced apoptosis in all cells tested

Reference: US9539231B2, “Method for treating triple-negative breast cancer using AMPI-109” (The Regents of the University of Colorado, a body corporate, priority 2014, dated 2017)
